Source: ChEMBL document CHEMBL4346703, “Structure Overhaul Affords a Potent Purine PI3Kδ Inhibitor with Improved Tolerability” (J Med Chem, 2019)
pIC50: −log10 of the molar value.

Experiments:
[1] = Plasma clearance in Beagle dog at 0.25 mg/kg, iv or 0.5 mg/kg, po; assay type: ADME, organism-based, Canis lupus familiaris
[2] = biological target: PI3-kinase p110-alpha/p85-alpha (Homo sapiens, UniProt P42336); assay: Inhibition of N-terminal His6-tagged recombinant full length human p110alpha/untagged recombinant full length human p85alpha expressed in baculovirus infected Sf21 insect cells using PIP2 as substrate preincubated for 15 mins followed by substrate addition and measured after 1 hr by HTRF assay
Sequence of PI3-kinase p110-alpha/p85-alpha (P27986 whole entry): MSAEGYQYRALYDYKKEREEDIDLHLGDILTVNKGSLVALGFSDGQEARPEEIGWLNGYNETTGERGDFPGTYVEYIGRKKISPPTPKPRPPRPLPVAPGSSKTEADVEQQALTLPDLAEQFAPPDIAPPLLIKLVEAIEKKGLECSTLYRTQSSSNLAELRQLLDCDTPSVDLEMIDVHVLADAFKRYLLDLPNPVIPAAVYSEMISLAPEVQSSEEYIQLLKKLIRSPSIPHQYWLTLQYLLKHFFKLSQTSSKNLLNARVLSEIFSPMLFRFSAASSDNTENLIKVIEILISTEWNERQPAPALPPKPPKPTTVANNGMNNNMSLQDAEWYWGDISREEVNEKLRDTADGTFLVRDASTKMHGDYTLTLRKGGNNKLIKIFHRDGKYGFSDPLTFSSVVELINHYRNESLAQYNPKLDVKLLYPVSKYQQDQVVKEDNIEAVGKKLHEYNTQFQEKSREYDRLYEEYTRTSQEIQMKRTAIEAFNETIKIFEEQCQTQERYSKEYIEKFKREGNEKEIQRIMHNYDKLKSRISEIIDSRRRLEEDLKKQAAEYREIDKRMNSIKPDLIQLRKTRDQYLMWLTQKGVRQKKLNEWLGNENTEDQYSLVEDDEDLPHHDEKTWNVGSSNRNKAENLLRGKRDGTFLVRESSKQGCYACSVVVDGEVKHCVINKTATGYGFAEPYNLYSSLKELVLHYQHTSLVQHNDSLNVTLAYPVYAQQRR
Sequence of PI3-kinase p110-alpha/p85-alpha (P42336 whole entry): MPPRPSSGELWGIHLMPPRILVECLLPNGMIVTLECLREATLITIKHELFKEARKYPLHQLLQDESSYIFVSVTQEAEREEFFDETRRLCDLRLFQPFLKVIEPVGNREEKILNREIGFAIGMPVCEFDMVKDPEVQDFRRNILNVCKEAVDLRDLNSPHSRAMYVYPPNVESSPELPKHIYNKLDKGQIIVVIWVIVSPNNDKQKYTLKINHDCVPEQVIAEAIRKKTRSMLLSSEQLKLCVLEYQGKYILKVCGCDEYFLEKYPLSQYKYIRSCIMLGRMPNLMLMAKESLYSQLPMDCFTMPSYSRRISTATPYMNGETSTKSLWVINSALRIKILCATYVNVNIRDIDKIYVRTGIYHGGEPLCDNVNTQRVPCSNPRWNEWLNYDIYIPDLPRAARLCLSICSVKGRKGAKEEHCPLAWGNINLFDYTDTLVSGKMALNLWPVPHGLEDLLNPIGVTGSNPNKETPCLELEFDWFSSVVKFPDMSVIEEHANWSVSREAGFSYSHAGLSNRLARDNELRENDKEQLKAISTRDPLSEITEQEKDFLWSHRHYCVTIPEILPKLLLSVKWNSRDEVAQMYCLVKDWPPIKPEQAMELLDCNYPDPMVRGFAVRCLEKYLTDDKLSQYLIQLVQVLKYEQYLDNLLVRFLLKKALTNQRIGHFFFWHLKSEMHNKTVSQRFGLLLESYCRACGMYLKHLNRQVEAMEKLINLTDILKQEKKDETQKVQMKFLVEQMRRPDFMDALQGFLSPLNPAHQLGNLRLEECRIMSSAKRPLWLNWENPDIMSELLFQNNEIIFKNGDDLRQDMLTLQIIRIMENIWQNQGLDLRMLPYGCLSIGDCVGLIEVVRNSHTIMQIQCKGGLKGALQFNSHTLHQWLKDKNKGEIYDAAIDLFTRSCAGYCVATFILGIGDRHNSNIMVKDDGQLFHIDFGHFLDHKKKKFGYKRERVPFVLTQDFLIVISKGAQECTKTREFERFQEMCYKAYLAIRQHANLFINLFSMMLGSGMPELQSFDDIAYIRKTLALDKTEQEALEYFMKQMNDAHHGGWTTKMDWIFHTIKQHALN

[3] = biological target: PI3-kinase p110-delta/p85-alpha (Homo sapiens, UniProt O00329); assay: Inhibition of N-terminal His6-tagged recombinant full length human p110delta/untagged recombinant full length human p85alpha expressed in baculovirus infected Sf21 insect cells using PIP2 as substrate preincubated for 15 mins followed by substrate addition and measured after 1 hr by HTRF assay
Sequence of PI3-kinase p110-delta/p85-alpha (P27986 whole entry, one chain of several, canonical isoform): as the sequence (P27986 whole entry) above

[4] = biological target: T1, Phosphatidylinositol 4,5-bisphosphate 3-kinase catalytic subunit delta isoform (Homo sapiens, UniProt O00329); assay: Inhibition of PI3Kdelta in human Ramos cells assessed as reduction in anti-IgM-antibody-induced phosphorylation of AKT at Ser473 residue preincubated for 20 mins followed by anti-IgM antibody stimulation and measured after 30 mins by alphascreen assay; assay type: cell-based
T1 sequence (O00329 whole entry): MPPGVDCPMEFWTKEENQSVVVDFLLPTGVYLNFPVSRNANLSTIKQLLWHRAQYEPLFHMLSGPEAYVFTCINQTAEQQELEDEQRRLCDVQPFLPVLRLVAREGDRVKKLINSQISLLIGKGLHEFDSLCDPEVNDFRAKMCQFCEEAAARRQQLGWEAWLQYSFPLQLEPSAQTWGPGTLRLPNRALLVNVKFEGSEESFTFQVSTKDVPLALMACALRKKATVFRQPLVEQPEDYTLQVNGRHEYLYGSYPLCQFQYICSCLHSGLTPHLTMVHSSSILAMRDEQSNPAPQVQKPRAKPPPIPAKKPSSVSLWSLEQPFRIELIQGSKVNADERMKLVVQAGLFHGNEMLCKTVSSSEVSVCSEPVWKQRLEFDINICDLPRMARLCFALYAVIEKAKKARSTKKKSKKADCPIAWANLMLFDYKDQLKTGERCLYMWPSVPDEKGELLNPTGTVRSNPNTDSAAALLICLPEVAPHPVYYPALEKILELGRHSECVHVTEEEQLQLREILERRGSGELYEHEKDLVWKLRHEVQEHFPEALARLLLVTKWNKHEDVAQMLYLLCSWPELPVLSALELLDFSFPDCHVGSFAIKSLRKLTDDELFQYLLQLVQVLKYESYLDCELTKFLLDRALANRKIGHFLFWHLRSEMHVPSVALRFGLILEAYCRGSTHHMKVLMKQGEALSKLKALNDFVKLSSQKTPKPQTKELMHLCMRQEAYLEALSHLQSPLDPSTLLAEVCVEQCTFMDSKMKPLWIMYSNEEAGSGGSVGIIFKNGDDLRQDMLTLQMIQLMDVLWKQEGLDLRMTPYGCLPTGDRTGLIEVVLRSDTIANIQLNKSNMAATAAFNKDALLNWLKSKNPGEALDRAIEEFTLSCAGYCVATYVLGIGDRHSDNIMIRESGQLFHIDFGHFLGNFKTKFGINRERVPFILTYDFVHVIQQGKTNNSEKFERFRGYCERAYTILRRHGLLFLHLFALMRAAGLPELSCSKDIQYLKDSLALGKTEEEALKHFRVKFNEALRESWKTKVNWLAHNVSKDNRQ

[5] = Inhibition of adenosine transporter in human HeLa cells assessed as reduction in [3H]adenosine uptake preincubated for 30 mins followed by [3H]adenosine addition and measured after 60 mins; assay type: ADME, cell-based
[6] = biological target: T1, Phosphatidylinositol 4,5-bisphosphate 3-kinase catalytic subunit delta isoform; assay: Inhibition of PI3Kdelta in human whole blood assessed as reduction in anti-CD79b antibody-induced CD69 expression preincubated for 60 mins followed by anti-CD79b antibody stimulation and measured after 3 hrs by FACS analysis; assay type: tissue-based
[7] = biological target: T1, Phosphatidylinositol 4,5-bisphosphate 3-kinase catalytic subunit delta isoform; assay: Inhibition of PI3Kdelta in human whole blood assessed as reduction in antihuman IgE antibody-stimulated CD63 expression preincubated for 30 mins followed by antihuman IgE antibody stimulation and measured after 20 mins by FACS analysis; assay type: tissue-based
[8] = biological target: Phosphodiesterase 1 (Homo sapiens, UniProt P54750+Q01064+Q14123); assay: Inhibition of PDE1 (unknown origin); assay type: protein assay
[9] = biological target: cGMP-dependent 3',5'-cyclic phosphodiesterase (Homo sapiens, UniProt O00408); assay: Inhibition of PDE2 (unknown origin)
Sequence of cGMP-dependent 3',5'-cyclic phosphodiesterase (O00408 whole entry): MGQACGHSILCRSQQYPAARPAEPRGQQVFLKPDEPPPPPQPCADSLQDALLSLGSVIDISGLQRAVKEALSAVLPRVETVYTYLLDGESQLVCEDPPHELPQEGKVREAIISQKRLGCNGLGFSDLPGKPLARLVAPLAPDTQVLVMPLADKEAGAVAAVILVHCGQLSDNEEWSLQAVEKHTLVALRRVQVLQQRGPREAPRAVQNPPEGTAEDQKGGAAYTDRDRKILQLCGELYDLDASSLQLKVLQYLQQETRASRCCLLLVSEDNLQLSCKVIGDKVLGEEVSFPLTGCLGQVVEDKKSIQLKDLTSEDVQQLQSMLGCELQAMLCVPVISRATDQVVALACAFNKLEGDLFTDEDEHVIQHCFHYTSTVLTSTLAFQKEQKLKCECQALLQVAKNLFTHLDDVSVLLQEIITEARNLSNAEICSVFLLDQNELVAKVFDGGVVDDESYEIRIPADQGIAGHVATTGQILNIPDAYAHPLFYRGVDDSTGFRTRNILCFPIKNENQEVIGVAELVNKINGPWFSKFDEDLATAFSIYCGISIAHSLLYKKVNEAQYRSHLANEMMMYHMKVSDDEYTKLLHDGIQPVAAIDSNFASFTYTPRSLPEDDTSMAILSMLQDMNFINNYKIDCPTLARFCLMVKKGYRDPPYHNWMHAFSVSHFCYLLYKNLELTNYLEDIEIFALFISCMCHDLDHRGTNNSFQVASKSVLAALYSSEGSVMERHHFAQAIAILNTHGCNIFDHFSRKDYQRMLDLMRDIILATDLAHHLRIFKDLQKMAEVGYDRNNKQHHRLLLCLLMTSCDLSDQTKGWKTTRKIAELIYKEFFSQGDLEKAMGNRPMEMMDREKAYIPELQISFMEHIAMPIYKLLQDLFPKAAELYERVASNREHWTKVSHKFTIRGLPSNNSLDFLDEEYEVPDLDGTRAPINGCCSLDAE

[10] = biological target: Phosphodiesterase 3 (Homo sapiens, UniProt Q14432+Q13370); assay: Inhibition of PDE3 (unknown origin); assay type: protein assay
[11] = biological target: Phosphodiesterase 4 (Homo sapiens, UniProt P27815+Q08499+Q07343+Q08493); assay: Inhibition of PDE4 (unknown origin); assay type: protein assay
[12] = biological target: cAMP and cAMP-inhibited cGMP 3',5'-cyclic phosphodiesterase 10A (Homo sapiens, UniProt Q9Y233); assay: Inhibition of PDE10 (unknown origin)
Sequence of cAMP and cAMP-inhibited cGMP 3',5'-cyclic phosphodiesterase 10A (Q9Y233 whole entry): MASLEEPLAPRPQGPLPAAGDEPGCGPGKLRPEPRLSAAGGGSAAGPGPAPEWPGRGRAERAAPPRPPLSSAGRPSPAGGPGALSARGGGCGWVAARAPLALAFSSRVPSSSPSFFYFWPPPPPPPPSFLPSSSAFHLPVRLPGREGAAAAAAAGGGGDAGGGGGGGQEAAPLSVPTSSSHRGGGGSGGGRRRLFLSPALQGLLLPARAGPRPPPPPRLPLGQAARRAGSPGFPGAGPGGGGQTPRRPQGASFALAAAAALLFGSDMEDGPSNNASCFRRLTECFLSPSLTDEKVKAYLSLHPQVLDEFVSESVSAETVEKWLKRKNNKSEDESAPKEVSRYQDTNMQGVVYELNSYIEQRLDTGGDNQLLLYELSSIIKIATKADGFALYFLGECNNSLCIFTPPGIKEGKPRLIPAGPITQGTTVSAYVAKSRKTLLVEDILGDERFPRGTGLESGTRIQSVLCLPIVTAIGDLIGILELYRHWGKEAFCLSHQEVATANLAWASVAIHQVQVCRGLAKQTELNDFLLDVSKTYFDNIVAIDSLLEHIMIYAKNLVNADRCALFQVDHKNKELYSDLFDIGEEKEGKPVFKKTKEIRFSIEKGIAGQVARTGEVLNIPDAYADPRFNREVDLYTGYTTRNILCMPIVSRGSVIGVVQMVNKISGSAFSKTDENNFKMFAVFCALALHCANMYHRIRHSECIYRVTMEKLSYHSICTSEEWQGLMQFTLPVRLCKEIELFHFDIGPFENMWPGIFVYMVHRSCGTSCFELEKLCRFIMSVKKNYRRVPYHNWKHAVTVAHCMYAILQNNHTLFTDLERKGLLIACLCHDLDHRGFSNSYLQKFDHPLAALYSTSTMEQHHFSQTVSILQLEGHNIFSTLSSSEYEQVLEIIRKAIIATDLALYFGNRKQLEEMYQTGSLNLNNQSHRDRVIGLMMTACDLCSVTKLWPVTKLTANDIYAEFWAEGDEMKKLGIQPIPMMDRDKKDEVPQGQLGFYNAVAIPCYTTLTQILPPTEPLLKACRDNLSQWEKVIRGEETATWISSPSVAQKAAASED

[13] = Plasma clearance in Wistar Han rat at 0.5 mg/kg, iv or 1 mg/kg, po; assay type: ADME, organism-based
[14] = Intrinsic clearance in Wistar Han rat at 0.5 mg/kg, iv or 1 mg/kg, po; assay type: ADME, organism-based; conditions: in vivo
[15] = Volume of distribution in Wistar Han rat; assay type: ADME; conditions: in vivo
[16] = Unbound volume of distribution in Wistar Han rat; assay type: ADME; conditions: in vivo
[17] = Half-life in Wistar Han rat; assay type: ADME; conditions: in vivo
[18] = Oral bioavailability in Wistar Han rat; assay type: ADME, organism-based; conditions: in vivo
[19] = Protein binding in Wistar Han rat plasma; assay type: ADME, cell-free; conditions: read-out: PPB (converted)
[20] = Volume of distribution in Beagle dog; assay type: ADME, Canis lupus familiaris; conditions: in vivo
[21] = Unbound volume of distribution in Beagle dog; assay type: ADME, Canis lupus familiaris; conditions: in vivo
[22] = Half-life in Beagle dog; assay type: ADME, Canis lupus familiaris; conditions: in vivo
[23] = Oral bioavailability in Beagle dog; assay type: ADME, organism-based, Canis lupus familiaris; conditions: in vivo
[24] = Protein binding in Beagle dog plasma; assay type: ADME, cell-free, Canis lupus familiaris; conditions: read-out: PPB (converted)
[25] = Protein binding in human plasma; assay type: ADME, cell-free; conditions: read-out: PPB (converted)
[26] = Toxicity in rat assessed as increase in blood pressure at 750 mg/kg/day; assay type: organism-based; conditions: in vivo
[27] = Toxicity in rat assessed as increase in heart rate at 750 mg/kg/day; assay type: organism-based; conditions: in vivo
[28] = fAUC in rat at 750 mg/kg/day; assay type: ADME, organism-based; conditions: in vivo
[29] = fCmax in rat at 750 mg/kg/day; assay type: ADME, organism-based; conditions: in vivo
[30] = fAUC in Beagle dog at 30 mg/kg; assay type: ADME, organism-based, Canis lupus familiaris; conditions: in vivo
[31] = fCmax in Beagle dog at 30 mg/kg; assay type: ADME, organism-based, Canis lupus familiaris; conditions: in vivo
[32] = Lipophilicity, log D of the compound; assay type: physicochemical; conditions: octanol/water
[33] = Stability in rat microsomes in the presence of NADPH; assay type: ADME, Microsome
[34] = Stability in human microsomes in the presence of NADPH; assay type: ADME, Microsome
[35] = Drug metabolism in dog microsomes assessed as oxidation of imidazopyridinone metabolite; assay type: ADME, Canis lupus familiaris, Microsome
[36] = biological target: T2, Nuclear receptor subfamily 1 group I member 2 (Homo sapiens, UniProt O75469); assay: Activation of PXR (unknown origin); assay type: ADME
T2 sequence (O75469 whole entry): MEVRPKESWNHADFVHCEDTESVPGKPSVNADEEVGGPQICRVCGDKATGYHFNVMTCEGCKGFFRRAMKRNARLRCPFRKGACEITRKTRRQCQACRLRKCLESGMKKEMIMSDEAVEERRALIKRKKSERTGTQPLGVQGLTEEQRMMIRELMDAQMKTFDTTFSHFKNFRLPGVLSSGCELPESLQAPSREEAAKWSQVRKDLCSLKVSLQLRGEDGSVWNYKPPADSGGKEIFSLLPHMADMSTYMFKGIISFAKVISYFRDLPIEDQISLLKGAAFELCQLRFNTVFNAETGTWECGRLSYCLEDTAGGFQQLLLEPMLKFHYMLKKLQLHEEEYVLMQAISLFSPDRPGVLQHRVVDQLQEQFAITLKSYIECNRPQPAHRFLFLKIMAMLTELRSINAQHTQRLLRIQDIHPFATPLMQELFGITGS

[37] = Drug metabolism in dog microsomes assessed as N-dealkylation of pyrazole metabolite; assay type: ADME, Canis lupus familiaris, Microsome
[38] = Toxicity in Beagle dogs assessed as medial necrosis of the arteries by measuring disruption of tunica media by hemorrhage at 30 mg/kg; assay type: organism-based, Canis lupus familiaris; conditions: dog, in vivo
[39] = Toxicity in Beagle dogs assessed as medial necrosis of the arteries by measuring disruption of tunica media by fibrin at 30 mg/kg; assay type: organism-based, Canis lupus familiaris; conditions: dog, in vivo
[40] = Toxicity in Beagle dogs assessed as medial necrosis of the arteries by measuring disruption of tunica media by cellular debris at 30 mg/kg; assay type: organism-based, Canis lupus familiaris; conditions: dog, in vivo

**Q.** Which results are given for CCn1ncc(-c2nc3c(N4CCC(n5c(=O)[nH]c6ncccc65)CC4)ncnc3n2C)c1C?
**A.** clearance [1]: 46 mL/min/kg; pIC50 [2]: 6.35; pIC50 [3]: 8.20; pIC50 [4]: 7.20; pIC50 [5]: 7.14; pIC50 [6]: 6.09; pIC50 [7]: 6.10; IC50 [8]: 2350 nM; pIC50 [9]: 5.31; IC50 [10]: 1030 nM; IC50 [11]: 1190 nM; pIC50 [12]: 5.40; clearance [13]: 5.8 mL/min/kg; CL [14]: 60 mL/min/kg; Vd [15]: 0.4 L/kg; Vdu [16]: 4 L/kg; half-life [17]: 1.2 h; bioavailability [18]: 76%; fraction unbound [19]: 0.1; Vd [20]: 4.6 L/kg; Vdu [21]: 90 L/kg; half-life [22]: 1.1 h; bioavailability [23]: 61%; fraction unbound [24]: 0.05; fraction unbound [25]: 0.21; Activity [26]: 20 mmHg; Activity [27]: 100 bpm; fAUC [28]: 123 µM·h; fCmax [29]: 8 µM; fAUC [30]: 4.4 µM·h; fCmax [31]: 0.33 µM; logD [32]: 1.4; Stability [33]: Stable; Stability [34]: Stable; Drug metabolism [35]: Metabolite_Detected; Activity [36]: Not Active; Drug metabolism [37]: Metabolite_Detected; Activity [38]: Non-Toxic; Activity [39]: Non-Toxic; Activity [40]: Non-Toxic
